Values after ≈ are worked out from the molar mass of the structure shown.
Key:
[1] = target: Phosphatidylinositol 4,5-bisphosphate 3-kinase catalytic subunit gamma isoform (Homo sapiens, UniProt P48736); assay: Inhibition of N-terminus poly-His tagged human PI3Kgamma expressed in baculovirus infected insect sf9 cells using PI(4,5)P2 as substrate preincubated with compound for 15 mins measured after 10 mins by HTRF assay
[2] = target: T1, Phosphatidylinositol 4,5-bisphosphate 3-kinase catalytic subunit beta isoform (Homo sapiens, UniProt P42338); assay: Inhibition of human PI3Kbeta-mediated Akt phosphorylation at Ser473 residue expressed in PTEN-deficient human PC3 cells by chemiluminescence assay; format: cell-based, PC-3
[3] = target: T2, Phosphatidylinositol 4,5-bisphosphate 3-kinase catalytic subunit delta isoform (Homo sapiens, UniProt O00329); assay: Inhibition of poly-His tagged human PI3Kdelta expressed in baculovirus infected insect sf9 cells coexpressing p85alpha using PI(4,5)P2 as substrate preincubated with compound for 15 mins measured after 10 mins by HTRF assay
T2 sequence (O00329 whole entry): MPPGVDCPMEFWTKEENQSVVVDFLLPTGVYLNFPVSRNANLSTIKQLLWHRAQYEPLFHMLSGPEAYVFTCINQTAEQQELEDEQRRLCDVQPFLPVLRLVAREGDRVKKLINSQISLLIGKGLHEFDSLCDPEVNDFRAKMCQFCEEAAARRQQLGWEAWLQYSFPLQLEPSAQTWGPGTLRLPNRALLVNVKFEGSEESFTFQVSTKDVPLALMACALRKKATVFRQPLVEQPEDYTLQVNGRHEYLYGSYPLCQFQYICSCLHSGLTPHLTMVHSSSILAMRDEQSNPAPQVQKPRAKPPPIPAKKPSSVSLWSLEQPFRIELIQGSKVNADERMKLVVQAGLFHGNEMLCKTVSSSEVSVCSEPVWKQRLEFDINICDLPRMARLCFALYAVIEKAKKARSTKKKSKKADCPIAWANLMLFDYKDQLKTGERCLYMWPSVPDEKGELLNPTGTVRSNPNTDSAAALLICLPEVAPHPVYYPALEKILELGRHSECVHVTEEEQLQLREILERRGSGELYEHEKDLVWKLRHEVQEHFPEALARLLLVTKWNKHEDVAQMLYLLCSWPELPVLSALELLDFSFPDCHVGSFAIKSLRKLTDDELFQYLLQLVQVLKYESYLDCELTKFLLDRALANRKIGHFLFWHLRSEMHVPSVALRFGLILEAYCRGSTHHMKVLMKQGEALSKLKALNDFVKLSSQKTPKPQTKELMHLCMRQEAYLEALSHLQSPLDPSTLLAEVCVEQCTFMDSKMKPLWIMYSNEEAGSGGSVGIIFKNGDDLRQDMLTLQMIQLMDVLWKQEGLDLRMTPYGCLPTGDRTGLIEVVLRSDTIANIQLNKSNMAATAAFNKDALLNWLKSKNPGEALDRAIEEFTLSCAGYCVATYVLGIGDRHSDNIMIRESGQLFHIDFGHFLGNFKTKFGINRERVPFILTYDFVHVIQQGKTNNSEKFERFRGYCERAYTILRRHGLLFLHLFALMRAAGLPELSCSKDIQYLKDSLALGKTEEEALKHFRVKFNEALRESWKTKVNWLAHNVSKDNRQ

[4] = target: Phosphatidylinositol 4,5-bisphosphate 3-kinase catalytic subunit alpha isoform (Homo sapiens, UniProt P42336); assay: Inhibition of N-terminus poly-His tagged human PI3Kalpha expressed in baculovirus infected insect sf9 cells coexpressing p85alpha using PI(4,5)P2 as substrate preincubated with compound for 15 mins measured after 10 mins by HTRF assay
[5] = target: T1, Phosphatidylinositol 4,5-bisphosphate 3-kinase catalytic subunit beta isoform; assay: Inhibition of N-terminus poly-His tagged human PI3Kbeta expressed in baculovirus infected insect […] cells coexpressing p85alpha using PI(4,5)P2 as substrate preincubated with compound for 15 mins measured after 10 mins by HTRF assay
[6] = target: Serine/threonine-protein kinase mTOR (Homo sapiens, UniProt P42345); assay: Inhibition of mTOR
Cytochrome P450 3A4 = Cytochrome P450 3A4 (Homo sapiens, UniProt P08684); assay: Inhibition of human recombinant CPY3A4
[7] = Drug metabolism in mouse liver microsomes; format: ADME, Microsome; conditions: read-out: Drug metabolism
[8] = Thermodynamic solubility of the compound in phosphate buffer at pH 7.4 after 16 hrs by HPLC analysis; format: physicochemical; conditions: read-out: Therm_solubility
[9] = Drug metabolism in human liver microsomes; format: ADME, Microsome; conditions: read-out: Drug metabolism
[10] = Apparent permeability of the compound across human Caco2 cells; format: ADME, cell-based; conditions: Caco-2

Sequence of Phosphatidylinositol 4,5-bisphosphate 3-kinase catalytic subunit gamma isoform (P48736 whole entry, canonical isoform): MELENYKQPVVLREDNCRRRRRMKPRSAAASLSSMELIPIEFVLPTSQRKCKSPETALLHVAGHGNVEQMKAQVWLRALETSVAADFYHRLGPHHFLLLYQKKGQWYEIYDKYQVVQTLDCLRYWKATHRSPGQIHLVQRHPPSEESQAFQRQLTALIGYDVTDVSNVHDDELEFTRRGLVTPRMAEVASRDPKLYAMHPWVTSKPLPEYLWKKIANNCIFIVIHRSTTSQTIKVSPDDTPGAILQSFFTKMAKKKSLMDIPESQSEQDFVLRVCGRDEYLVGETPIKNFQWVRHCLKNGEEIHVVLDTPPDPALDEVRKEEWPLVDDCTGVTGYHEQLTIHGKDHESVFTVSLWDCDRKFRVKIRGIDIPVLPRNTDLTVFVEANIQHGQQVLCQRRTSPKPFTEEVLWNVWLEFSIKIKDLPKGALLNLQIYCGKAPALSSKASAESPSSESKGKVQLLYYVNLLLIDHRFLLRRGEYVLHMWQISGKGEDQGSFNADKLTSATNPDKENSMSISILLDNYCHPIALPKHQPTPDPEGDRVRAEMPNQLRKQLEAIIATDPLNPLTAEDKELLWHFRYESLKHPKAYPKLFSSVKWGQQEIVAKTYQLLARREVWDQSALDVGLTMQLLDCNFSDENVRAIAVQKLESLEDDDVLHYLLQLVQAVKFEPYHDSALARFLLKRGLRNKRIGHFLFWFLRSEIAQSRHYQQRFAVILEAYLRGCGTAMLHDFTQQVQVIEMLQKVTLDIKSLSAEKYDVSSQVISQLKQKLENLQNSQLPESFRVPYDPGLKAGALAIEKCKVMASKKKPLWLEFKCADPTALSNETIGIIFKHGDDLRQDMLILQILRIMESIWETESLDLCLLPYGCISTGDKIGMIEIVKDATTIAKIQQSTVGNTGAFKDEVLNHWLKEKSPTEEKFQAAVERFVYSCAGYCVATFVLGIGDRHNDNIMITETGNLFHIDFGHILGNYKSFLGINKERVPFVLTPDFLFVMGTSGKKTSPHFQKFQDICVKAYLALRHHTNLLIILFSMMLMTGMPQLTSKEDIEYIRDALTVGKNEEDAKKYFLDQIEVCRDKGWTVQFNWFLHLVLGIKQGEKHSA
Sequence of Phosphatidylinositol 4,5-bisphosphate 3-kinase catalytic subunit alpha isoform (P42336 whole entry, canonical isoform): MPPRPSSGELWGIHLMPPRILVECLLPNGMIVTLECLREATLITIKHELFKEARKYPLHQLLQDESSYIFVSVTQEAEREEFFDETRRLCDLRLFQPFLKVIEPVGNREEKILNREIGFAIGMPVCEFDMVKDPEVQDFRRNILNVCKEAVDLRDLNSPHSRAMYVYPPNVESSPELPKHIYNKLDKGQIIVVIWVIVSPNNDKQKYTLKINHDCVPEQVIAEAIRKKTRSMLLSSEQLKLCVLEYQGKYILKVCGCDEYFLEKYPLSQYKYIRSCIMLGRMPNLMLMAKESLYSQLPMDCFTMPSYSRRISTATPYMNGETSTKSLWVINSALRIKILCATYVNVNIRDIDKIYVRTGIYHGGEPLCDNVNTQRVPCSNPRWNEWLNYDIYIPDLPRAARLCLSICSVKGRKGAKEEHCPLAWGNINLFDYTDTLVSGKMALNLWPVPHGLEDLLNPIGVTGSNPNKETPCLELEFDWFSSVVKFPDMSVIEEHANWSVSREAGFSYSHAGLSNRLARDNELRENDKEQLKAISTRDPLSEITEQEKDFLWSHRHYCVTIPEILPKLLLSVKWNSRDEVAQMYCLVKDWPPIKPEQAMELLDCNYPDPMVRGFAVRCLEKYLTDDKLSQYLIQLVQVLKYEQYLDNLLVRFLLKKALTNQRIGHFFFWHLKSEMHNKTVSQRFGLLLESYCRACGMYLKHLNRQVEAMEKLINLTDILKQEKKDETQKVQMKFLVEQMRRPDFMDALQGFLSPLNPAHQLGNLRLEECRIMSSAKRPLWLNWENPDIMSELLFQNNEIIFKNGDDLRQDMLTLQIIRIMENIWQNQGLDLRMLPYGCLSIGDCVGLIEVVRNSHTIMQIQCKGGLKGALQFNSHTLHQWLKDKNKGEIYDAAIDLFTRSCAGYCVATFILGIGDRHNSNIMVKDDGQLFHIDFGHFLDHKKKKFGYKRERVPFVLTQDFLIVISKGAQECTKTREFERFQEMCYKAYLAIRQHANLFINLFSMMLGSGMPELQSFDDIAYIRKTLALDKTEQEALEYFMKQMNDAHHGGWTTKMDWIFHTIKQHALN
Sequence of Cytochrome P450 3A4 (P08684 whole entry): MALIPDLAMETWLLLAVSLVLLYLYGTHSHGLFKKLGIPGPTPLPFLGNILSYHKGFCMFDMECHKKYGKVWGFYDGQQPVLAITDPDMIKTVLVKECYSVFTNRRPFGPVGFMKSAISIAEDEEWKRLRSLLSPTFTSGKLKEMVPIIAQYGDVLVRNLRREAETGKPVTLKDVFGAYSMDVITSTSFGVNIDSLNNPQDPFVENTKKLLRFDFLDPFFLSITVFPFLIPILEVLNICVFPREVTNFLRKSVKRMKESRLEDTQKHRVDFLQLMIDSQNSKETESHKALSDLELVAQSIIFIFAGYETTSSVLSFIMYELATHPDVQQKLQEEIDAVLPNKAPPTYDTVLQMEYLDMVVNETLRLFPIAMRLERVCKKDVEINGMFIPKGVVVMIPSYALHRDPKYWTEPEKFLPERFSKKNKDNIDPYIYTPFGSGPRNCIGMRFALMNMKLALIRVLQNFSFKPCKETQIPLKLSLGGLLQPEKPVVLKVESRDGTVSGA
T1 sequence (P42338 whole entry, canonical isoform): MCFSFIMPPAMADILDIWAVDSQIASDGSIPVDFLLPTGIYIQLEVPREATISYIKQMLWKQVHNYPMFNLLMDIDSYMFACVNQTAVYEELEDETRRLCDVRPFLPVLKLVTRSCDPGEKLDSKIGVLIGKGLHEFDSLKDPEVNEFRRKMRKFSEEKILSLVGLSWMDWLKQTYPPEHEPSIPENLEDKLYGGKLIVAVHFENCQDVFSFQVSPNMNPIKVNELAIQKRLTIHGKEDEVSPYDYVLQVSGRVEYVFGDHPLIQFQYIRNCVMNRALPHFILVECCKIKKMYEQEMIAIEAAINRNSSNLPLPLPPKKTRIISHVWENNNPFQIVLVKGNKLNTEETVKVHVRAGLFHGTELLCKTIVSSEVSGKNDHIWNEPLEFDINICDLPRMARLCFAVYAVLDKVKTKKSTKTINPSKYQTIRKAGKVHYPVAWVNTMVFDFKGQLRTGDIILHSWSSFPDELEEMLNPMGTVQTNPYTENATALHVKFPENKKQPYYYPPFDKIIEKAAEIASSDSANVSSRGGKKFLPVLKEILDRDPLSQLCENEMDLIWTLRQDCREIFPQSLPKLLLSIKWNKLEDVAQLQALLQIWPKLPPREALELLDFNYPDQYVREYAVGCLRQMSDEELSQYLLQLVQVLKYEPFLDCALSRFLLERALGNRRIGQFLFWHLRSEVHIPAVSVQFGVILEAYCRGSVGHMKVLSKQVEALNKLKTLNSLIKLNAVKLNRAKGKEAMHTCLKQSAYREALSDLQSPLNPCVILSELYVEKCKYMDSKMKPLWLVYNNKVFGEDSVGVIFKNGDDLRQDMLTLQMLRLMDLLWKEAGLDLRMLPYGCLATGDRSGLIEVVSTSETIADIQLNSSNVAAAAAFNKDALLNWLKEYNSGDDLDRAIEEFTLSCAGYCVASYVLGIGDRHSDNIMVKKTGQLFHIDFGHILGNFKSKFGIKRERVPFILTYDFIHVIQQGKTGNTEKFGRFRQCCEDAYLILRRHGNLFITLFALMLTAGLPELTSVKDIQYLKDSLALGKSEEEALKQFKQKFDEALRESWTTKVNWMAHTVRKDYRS

Structure (SMILES) | IC50 [1] | IC50 [2] | IC50 [3] | IC50 [4] | IC50 [5] | IC50 [6] | IC50 (Cytochrome P450 3A4) | metabolised [7] | solubility thermodynamic at 16 h [8] | metabolised [9] | Papp [10]
Cc1cc(F)ccc1Oc1cccc2c(=O)cc(N3CCOCC3)[nH]c12 | > 10000 nM | 72 nM | 166 nM | > 10000 nM | 32 nM |  |  |  |  |  | 
O=c1cc(N2CCOCC2)nc(Cc2nc3cc(F)ccc3n2C2CC2)[nH]1 | > 10000 nM | 9 nM | 36 nM | > 10000 nM | 29 nM | > 10000 nM | > 40000 nM | 99% |  | 99% | 2.2 ×10⁻⁶ cm/s
COCCn1c(Cc2nc(N3CCOCC3)cc(=O)[nH]2)nc2cc(F)ccc21 | > 10000 nM | 109 nM | 270 nM | > 10000 nM | 205 nM | > 10000 nM |  |  |  |  | 
O=c1cc(N2CCOCC2)nc(Cc2nc3ccccc3n2C2CCCCC2)[nH]1 | > 10000 nM | 142 nM | 21 nM | 8400 nM | 90 nM | > 10000 nM | > 40000 nM | 96% |  | 97% | 1.5 ×10⁻⁶ cm/s
O=c1cc(N2CCOCC2)nc(Cc2nc3ccccc3n2Cc2ccccc2)[nH]1 | > 10000 nM | 105 nM | 84 nM | 5720 nM | 111 nM | > 10000 nM |  |  |  |  | 
Cn1c(Cc2nc(N3CCOCC3)cc(=O)[nH]2)nc2c(-c3ccccc3)cccc21 | > 10000 nM | 26 nM | 274 nM | 314 nM | 57 nM | > 10000 nM | > 40000 nM | 40% |  | 41% | 11.4 ×10⁻⁶ cm/s
Cn1c(Cc2nc(N3CCOCC3)cc(=O)[nH]2)nc2cc(-c3ccccc3)ccc21 | > 10000 nM |  | 6750 nM | > 10000 nM | > 10000 nM | > 10000 nM |  |  |  |  | 
Cn1c(Cc2nc(N3CCOCC3)cc(=O)[nH]2)nc2ccc(-c3ccccc3)cc21 | > 10000 nM |  | 3410 nM | 7800 nM | 3410 nM | > 10000 nM |  |  |  |  | 
O=c1cc(N2CCOCC2)nc(Cc2nc3c(F)cccc3o2)[nH]1 | > 10000 nM | 125 nM | 8450 nM | > 10000 nM | 567 nM | > 10000 nM |  |  |  |  | 
O=c1cc(N2CCOCC2)nc(Cc2nc3ccc(F)cc3o2)[nH]1 | > 10000 nM | 49 nM | 9040 nM | > 10000 nM | 126 nM | > 10000 nM |  |  |  |  | 
O=c1cc(N2CCOCC2)nc(Cc2nc3cccc(F)c3o2)[nH]1 | > 10000 nM | 88 nM | 2560 nM | > 10000 nM | 373 nM | > 10000 nM |  |  |  |  | 
Cn1c(Cc2nc3ccccc3o2)nc(N2CCOCC2)cc1=O |  |  |  | > 10000 nM | 1330 nM | > 10000 nM |  |  |  |  | 
Cc1cccc2oc(Cc3nc(N4CCOCC4)cc(=O)[nH]3)nc12 | 3330 nM | 75 nM | 2750 nM | > 10000 nM | 461 nM | > 10000 nM |  |  |  |  | 
O=c1cc(N2CCOCC2)nc(Cc2nc3c(Br)cccc3o2)[nH]1 | > 10000 nM | 127 nM | 2270 nM | > 10000 nM | 585 nM | > 10000 nM |  |  |  |  | 
O=c1cc(N2CCOCC2)nc(Cc2nc3c(-c4ccccc4)cccc3o2)[nH]1 | > 10000 nM | 13 nM | 373 nM | 7750 nM | 19 nM | > 10000 nM |  | 26% | 3 µM (≈ 1.17 µg/mL) | 40% | 31 ×10⁻⁶ cm/s
O=c1cc(N2CCOCC2)nc(Cc2nc3c(-c4ccccn4)cccc3o2)[nH]1 | > 10000 nM | 113 nM | 2170 nM | 3330 nM | 336 nM | > 10000 nM |  |  |  |  | 
O=c1cc(N2CCOCC2)nc(Cc2nc3c(-c4cccnc4)cccc3o2)[nH]1 | > 10000 nM | 44 nM | 335 nM | > 10000 nM | 156 nM | > 10000 nM |  |  |  |  | 
O=c1cc(N2CCOCC2)nc(Cc2nc3c(-c4ccncc4)cccc3o2)[nH]1 | > 10000 nM | 47 nM | 995 nM | > 10000 nM | 158 nM | > 10000 nM |  |  |  |  | 
O=c1cc(N2CCOCC2)nc(Cc2nc3ccccc3o2)[nH]1 | > 10000 nM | 62 nM | 779 nM | > 10000 nM | 82 nM | > 10000 nM | > 40000 nM | 7% | 160 µM (≈ 50 µg/mL) | 41% | 19.9 ×10⁻⁶ cm/s
O=C(Cc1nc(N2CCOCC2)cc(=O)[nH]1)Nc1ccccc1 | > 10000 nM |  | 118 nM | 2130 nM | 42 nM | > 10000 nM |  |  |  |  | 

The remaining lines, values ahead:

IC50 [1] | IC50 [2] | IC50 [3] | IC50 [4] | IC50 [5] | IC50 [6] | IC50 (Cytochrome P450 3A4) | metabolised [7] | solubility thermodynamic at 16 h [8] | metabolised [9] | Papp [10] | Structure (SMILES)
> 10000 nM | 665 nM | 2870 nM | > 10000 nM | 158 nM | > 10000 nM |  |  |  |  |  | O=c1cc(N2CCOCC2)nc(Cc2nc3ccccc3[nH]2)[nH]1
> 10000 nM |  | 5720 nM | > 10000 nM | 739 nM | > 10000 nM |  |  |  |  |  | Cn1c(Cc2nc3cc(F)ccc3[nH]2)nc(N2CCOCC2)cc1=O
> 10000 nM | 289 nM | 1060 nM | > 10000 nM | 290 nM | > 10000 nM |  |  |  |  |  | Cn1c(Cc2nc(N3CCOCC3)cc(=O)[nH]2)nc2ccc(F)cc21
> 10000 nM | 85 nM | 442 nM | 5460 nM | 91 nM | > 10000 nM | > 40000 nM | 27% | 3 µM (≈ 1.17 µg/mL) | 75% |  | O=c1cc(N2CCOCC2)nc(Cc2nc3cc(Br)ccc3[nH]2)[nH]1
> 10000 nM | 63 nM | 247 nM | 5650 nM | 99 nM | > 10000 nM | > 40000 nM | 35% | 3 µM (≈ 1.04 µg/mL) | 78% |  | O=c1cc(N2CCOCC2)nc(Cc2nc3ccc(Cl)cc3[nH]2)[nH]1
> 10000 nM | 140 nM | 2210 nM | 9880 nM | 450 nM | > 10000 nM |  |  |  |  |  | Cc1ccc2[nH]c(Cc3nc(N4CCOCC4)cc(=O)[nH]3)nc2c1
> 10000 nM | 475 nM | 397 nM | > 10000 nM | 193 nM | > 10000 nM |  |  |  |  |  | COc1ccc2[nH]c(Cc3nc(N4CCOCC4)cc(=O)[nH]3)nc2c1
> 10000 nM | 961 nM | 2850 nM | > 10000 nM | 386 nM | > 10000 nM |  |  |  |  |  | O=c1cc(N2CCOCC2)nc(Cc2nc3ccc(C(F)(F)F)cc3[nH]2)[nH]1
 | 233 nM |  | > 10000 nM | 960 nM | > 10000 nM |  |  |  |  |  | Cc1ccc2oc(Cc3nc(N4CCOCC4)cc(=O)[nH]3)nc2c1
> 10000 nM | 143 nM | 1140 nM | 9770 nM | 526 nM | > 10000 nM |  |  |  |  |  | Cc1ccc2nc(Cc3nc(N4CCOCC4)cc(=O)[nH]3)oc2c1
> 10000 nM | 202 nM | 2380 nM | 7150 nM | 425 nM | > 10000 nM |  |  |  |  |  | Cc1cccc2nc(Cc3nc(N4CCOCC4)cc(=O)[nH]3)oc12
